From patent US11464749B2, “Bismuth-thiol compositions and methods of use” (Microbion Corporation, priority 2018, dated 2022)
Values after ≈ are worked out from the molar mass of the structure shown. Values joined by “and” are separate entries in the source; they are usually repeats but may differ in a detail not shown here. Identical values can stand only once. Like-named read-outs stand apart in the source and are kept apart here.

Experiments:
C. tropicalis = assay: Broth microdilution MIC, yeast (Example 11); type: cell-based; details: FLU^R
C. parapsilosis [1] = assay: Broth microdilution MIC, yeast (Example 11); type: cell-based
C. albicans = assay: Broth microdilution MIC, yeast (Example 11); type: cell-based; details: Sensitive
C. glabrata = assay: Broth microdilution MIC, yeast (Example 11); type: cell-based; details: FLU^R
C. parapsilosis [2] = details: C. parapsilosis MMX 2323 (ATCC 22019), cited from earlier work
S. maltophilia = assay: MIC against CF bacterial strains (Example 5); details: Stenotrophomonas maltophilia
Burkholderia spp. = assay: organism not typed; type: cell-based; details: read-out: Drug B MIC
P. aeruginosa [3] = assay: MIC against CF bacterial strains (Example 5); details: Pseudomonas aeruginosa
S. aureus ATCC 29213 = details: control strain ATCC 29213; per CLSI M100-S24 or provided by Microbion; cited from earlier work
Achromobacter spp. = assay: MIC against CF bacterial strains (Example 5)
[4] = test system: B. cepacia (cepacia complex); assay: MIC against CF bacterial strains (Example 5); type: cell-based; details: Burkholderia cepacia, strain BC17
Protocol: (§1) A range of CF-isolated strains of Mycobacterium avium and Mycobacterium abscessus were included; which allows for understanding of the activity against non-tubercular Mycobacteria (NTM). Two distinct bismuth-thiol compounds were evaluated, including BisEDT and BisBDT. […] The CF-isolates of greater clinical relevance, including both M abscessus spp. and Burkholderia spp., were both consistently found to be much more susceptible to BisEDT and BisBDT.

[5] = test system: B. multivorans (cepacia complex); assay: MIC against CF bacterial strains (Example 5); type: cell-based; details: Burkholderia multivorans, strain BC5b
Protocol: as §1

M. abscessus complex = assay: MIC against CF bacterial strains (Example 5); type: cell-based, Mycobacterium abscessus; details: Mycobacteroides abscessus, read-out: MIC
Protocol: as §1

B. cenocepacia = assay: FIC checkerboard assay; type: cell-based; details: for MIC: Burkholderia cenocepacia, read-out: Drug B MIC
B. cepacia = assay: FIC checkerboard assay; type: cell-based; details: Burkholderia cepacia, read-out: Drug B MIC
P. aeruginosa [6] = assay: FIC checkerboard assay; type: cell-based; details: Pseudomonas aeruginosa, read-out: Drug B MIC
[7] = test system: B. cenocepacia (B cepacia complex); assay: MIC against CF bacterial strains (Example 5)
[8] = Particle size distribution of exposure aerosols (In-Tox Mercer Impactor); details: rat efficacy study exposure atmospheres

SMILES: C[C@@H]1[C@H](O)[C@@H](C)/C=C/C=C/C=C/C=C/C=C/C=C/C=C/[C@H](O[C@@H]2O[C@H](C)[C@@H](O)[C@H](N)[C@@H]2O)C[C@@H]2O[C@](O)(C[C@@H](O)C[C@@H](O)[C@H](O)CC[C@@H](O)C[C@@H](O)CC(=O)O[C@H]1C)C[C@H](O)[C@H]2C(=O)O [Amphotericin B]
- MIC (C. tropicalis; C. tropicalis MMX 7247, 24 hr): 0.5 µg/mL (≈ 0.541 µM)
- MIC (C. tropicalis; C. tropicalis MMX 7247, 48 hr): 1 µg/mL (≈ 1.08 µM)
- MIC (C. tropicalis; C. tropicalis MMX 7248, 24 hr): 0.5 µg/mL (≈ 0.541 µM)
- MIC (C. tropicalis; C. tropicalis MMX 7248, 48 hr): 1 µg/mL (≈ 1.08 µM)
- MIC (C. parapsilosis [1]; C. parapsilosis MMX 2323 (ATCC 22019), QC, 24 hr): 0.5 µg/mL (≈ 0.541 µM)
- MIC (C. parapsilosis [1]; C. parapsilosis MMX 2323 (ATCC 22019), QC, 48 hr): 1 µg/mL (≈ 1.08 µM)
- MIC (C. parapsilosis [1]; C. parapsilosis MMX 7370, FLU^R, 24 hr): 0.5 µg/mL (≈ 0.541 µM)
- MIC (C. parapsilosis [1]; C. parapsilosis MMX 7370, FLU^R, 48 hr): 1 µg/mL (≈ 1.08 µM)
- MIC (C. albicans; C. albicans MMX 7055, 24 hr): 0.25 µg/mL (≈ 0.271 µM)
- MIC (C. albicans; C. albicans MMX 7055, 48 hr): 0.5 µg/mL (≈ 0.541 µM)
- MIC (C. glabrata; C. glabrata MMX 7086, 24 hr): 0.5 µg/mL (≈ 0.541 µM)
- MIC (C. glabrata; C. glabrata MMX 7086, 48 hr): 1 µg/mL (≈ 1.08 µM)
- MIC (C. glabrata; C. glabrata MMX 7318, 24 hr): 0.5 µg/mL (≈ 0.541 µM)
- MIC (C. glabrata; C. glabrata MMX 7318, 48 hr): 1 µg/mL (≈ 1.08 µM)
- MIC, CLSI QC range (C. parapsilosis [2]; 48 hr): 0.5 to 4 µg/mL

SMILES: NCC[C@H](O)C(=O)N[C@@H]1C[C@H](N)[C@@H](O[C@H]2O[C@H](CN)[C@@H](O)[C@H](O)[C@H]2O)[C@H](O)[C@H]1O[C@H]1O[C@H](CO)[C@@H](O)[C@H](N)[C@H]1O [Amikacin, reference compound]
- MIC (S. maltophilia): 64 µg/mL (≈ 109 µM)
- MIC (Burkholderia spp.): > 256 µg/mL
- MIC (P. aeruginosa [3]): 16 µg/mL (≈ 27.3 µM)
- MIC (P. aeruginosa [3]; strain AGR14, Multi-drug resistant): > 64 µg/mL
- MIC (P. aeruginosa [3]; strain MR14, Multi-drug resistant): > 64 µg/mL
- Expected MIC: goal (acceptable range) (S. aureus ATCC 29213): 2 (1-4) mcg/mL
- MIC (Achromobacter spp.): > 64 µg/mL
- MIC (Achromobacter spp.; Achromobacter): 64 µg/mL (≈ 109 µM)
- MIC [4]: > 64 µg/mL
- MIC [5]: > 64 µg/mL
- MIC (M. abscessus complex; AMT0130-8, M abscessus/massiliense complex): 16 µg/mL (≈ 27.3 µM)
- MIC (M. abscessus complex; AMT153-9, M abscessus/massiliense complex): 32 µg/mL (≈ 54.6 µM)
- MIC (M. abscessus complex; AMT0493-2, M abscessus/massiliense complex, Amikacin resistant): > 64 µg/mL
- MIC (M. abscessus complex; ATCC19977, ATCC 19977, M abscessus/massiliense complex, Macrolide resistant (inducible)): 8 µg/mL (≈ 13.7 µM)
- FICB (B. cenocepacia; B. cenocepacia 548, FIC of Amikacin in combination with BisEDT, per checkerboard row): 0.25 and 0.5
- FICB (B. cenocepacia; B. cenocepacia 813, FIC of Amikacin in combination with BisEDT, per checkerboard row): 0.5 and 1
- MIC (B. cenocepacia; B. cenocepacia 548, Amikacin alone (panel with BisEDT)): 128 µg/mL
- MIC (B. cenocepacia): > 256 µg/mL
- MIC (B. cepacia; B. cepacia 546, Amikacin alone (checkerboard with BisEDT)): 64 µg/mL
- MIC (B. cepacia; B. cepacia 1793, Amikacin alone (panel with BisEDT)): 32 µg/mL
- MIC (P. aeruginosa [6]; Amikacin alone, FIC panel with BisEDT, P. aeruginosa 6322): 64 µg/mL
- MIC (P. aeruginosa [6]; P. aeruginosa 6977, Amikacin alone (checkerboard with BisEDT)): 16 µg/mL
- MIC (P. aeruginosa [6]; P. aeruginosa 7745, Amikacin alone (checkerboard with BisEDT)): 4 µg/mL
- MIC (P. aeruginosa [6]; P. aeruginosa 8798, Amikacin alone (checkerboard with BisEDT)): 128 µg/mL
- MIC (P. aeruginosa [6]; P. aeruginosa 9108, Amikacin alone (checkerboard with BisEDT)): 4 µg/mL
- MIC ([7]; Burkholderia cenocepacia): > 64 µg/mL
- MIC ([7]; strain AU197): >64 µg/mL

SMILES: OC(Cn1cncn1)(Cn1cncn1)c1ccc(F)cc1F [fluconazole, Fluconazole, reference compound]
- MIC (C. tropicalis; Candida tropicalis, 24 h, C. tropicalis MMX 7247, 24 hr, read-out: MIC): 64 µg/mL (≈ 209 µM)
- MIC (C. tropicalis; Candida tropicalis, 24 h, C. tropicalis MMX 7248, 24 hr, read-out: MIC): 32 µg/mL (≈ 104 µM)
- MIC (C. tropicalis; Candida tropicalis, 24 h, C. tropicalis MMX 7360, 24 hr, read-out: MIC): 64 µg/mL (≈ 209 µM)
- MIC (C. tropicalis; Candida tropicalis, 48 h, C. tropicalis MMX 7247, 48 hr, read-out: MIC): > 64 µg/mL
- MIC (C. tropicalis; Candida tropicalis, 48 h, C. tropicalis MMX 7248, 48 hr, read-out: MIC): > 64 µg/mL
- MIC (C. tropicalis; Candida tropicalis, 48 h, C. tropicalis MMX 7360, 48 hr, read-out: MIC): > 64 µg/mL
- MIC (C. parapsilosis [1]; Lodderomyces parapsilosis, 24 h, C. parapsilosis MMX 7370, FLU^R, 24 hr, read-out: MIC (converted)): 32 µg/mL (≈ 104 µM)
- MIC (C. parapsilosis [1]; Lodderomyces parapsilosis, 24 h, C. parapsilosis MMX 7555, FLU^R, 24 hr, read-out: MIC (converted)): 32 µg/mL (≈ 104 µM)
- MIC (C. parapsilosis [1]; Lodderomyces parapsilosis, 48 h, C. parapsilosis MMX 7370, FLU^R, 48 hr, read-out: MIC (converted)): 32 µg/mL (≈ 104 µM)
- MIC (C. parapsilosis [1]; Lodderomyces parapsilosis, 48 h, C. parapsilosis MMX 7555, FLU^R, 48 hr, read-out: MIC (converted)): 64 µg/mL (≈ 209 µM)
- MIC (C. parapsilosis [1]; Lodderomyces parapsilosis, ATCC22019, 24 h, C. parapsilosis MMX 2323 (ATCC 22019), QC, 24 hr, read-out: MIC (converted)): 2 µg/mL (≈ 6.53 µM)
- MIC (C. parapsilosis [1]; Lodderomyces parapsilosis, ATCC22019, 48 h, C. parapsilosis MMX 2323 (ATCC 22019), QC, 48 hr, read-out: MIC (converted)): 2 µg/mL (≈ 6.53 µM)
- MIC (C. albicans; Candida albicans, 24 h, C. albicans MMX 7039, 24 hr, read-out: MIC): 0.5 µg/mL (≈ 1.63 µM)
- MIC (C. albicans; Candida albicans, 24 h, C. albicans MMX 7055, 24 hr, read-out: MIC): 0.25 µg/mL (≈ 0.816 µM)
- MIC (C. albicans; Candida albicans, 48 h, C. albicans MMX 7039, 48 hr, read-out: MIC): 0.5 µg/mL (≈ 1.63 µM)
- MIC (C. albicans; Candida albicans, 48 h, C. albicans MMX 7055, 48 hr, read-out: MIC): 0.5 µg/mL (≈ 1.63 µM)
- MIC (C. glabrata; Nakaseomyces glabratus, 24 h, C. glabrata MMX 7086, 24 hr, read-out: MIC): 32 µg/mL (≈ 104 µM)
- MIC (C. glabrata; Nakaseomyces glabratus, 24 h, C. glabrata MMX 7318, 24 hr, read-out: MIC): > 64 µg/mL
- MIC (C. glabrata; Nakaseomyces glabratus, 48 h, C. glabrata MMX 7086, 48 hr, read-out: MIC): 64 µg/mL (≈ 209 µM)
- MIC (C. glabrata; Nakaseomyces glabratus, 48 h, C. glabrata MMX 7318, 48 hr, read-out: MIC): > 64 µg/mL
- MIC, CLSI QC range (C. parapsilosis [2]; 24 hr): 0.5 to 4 µg/mL
- MIC, CLSI QC range (C. parapsilosis [2]; 48 hr): 1 to 4 µg/mL

SMILES: NC[C@H]1O[C@H](O[C@H]2[C@H](O)[C@@H](O[C@H]3O[C@H](CO)[C@@H](O)[C@H](N)[C@H]3O)[C@H](N)C[C@@H]2N)[C@H](N)C[C@@H]1O [Tobramycin, reference compound]
- MIC (Burkholderia spp.): > 256 µg/mL
- FICB (B. cenocepacia; B. cenocepacia 548, FIC of Tobramycin in combination with BisEDT, per checkerboard row): 0.5
- MICB (B. cenocepacia; B. cenocepacia 548, MIC of Tobramycin in combination with BisEDT, per checkerboard row): 8 µg/mL and 16 µg/mL
- FICB (B. cenocepacia; B. cenocepacia 813, FIC of Tobramycin in combination with BisEDT, per checkerboard row): 0.5 and 1
- MIC (B. cenocepacia; B. cenocepacia 548, Tobramycin alone (panel with BisEDT)): 32 µg/mL
- MIC (B. cenocepacia; B. cenocepacia 813, Tobramycin alone (panel with BisEDT)): 256 µg/mL
- MIC (B. cepacia; B. cepacia 546, Tobramycin alone (checkerboard with BisEDT)): 32 µg/mL
- MIC (B. cepacia; B. cepacia 1793, Tobramycin alone (checkerboard with BisEDT)): 16 µg/mL
- MIC (P. aeruginosa [6]; P. aeruginosa 6977, Tobramycin alone (checkerboard with BisEDT)): 128 µg/mL
- MIC (P. aeruginosa [6]; P. aeruginosa 7745, Tobramycin alone (checkerboard with BisEDT)): 0.5 µg/mL
- MIC (P. aeruginosa [6]; P. aeruginosa 8798, Tobramycin alone (checkerboard with BisEDT)): 0.016 µg/mL
- MIC (P. aeruginosa [6]; P. aeruginosa 9108, Tobramycin alone (checkerboard with BisEDT)): 0.5 µg/mL
- MIC (P. aeruginosa [6]; Tobramycin alone, FIC panel with BisEDT, P. aeruginosa 6322): 128 µg/mL
- MMAD of exposure aerosol [8]: 2.81 μm
